The results in this text go back to US8173635B2, “Kinase inhibitors” (Vertex Pharmaceuticals Incorporated, priority 2007, dated 2012).

Format in all cases: biochemical
For one assay, the target named is PKC delta kinase (Homo sapiens, UniProt Q05655). Briefly: PKC delta kinase inhibition, coupled-enzyme NADH absorbance assay (Ki). As to conditions: 150 μM ATP, 46 nM PKC delta, 30° C.; read-out: Ki PKC delta. The protocol:
(§1) An assay buffer solution was prepared which consisted of 100 mM HEPES (pH 7.5), 10 mM MgCl2, 25 mM NaCl, 0.1 mM EDTA and 0.01% Brij. […] To 16 μL of this enzyme buffer, in a 384 well plate, was added 1 μL of VRT stock solution in DMSO. The mixture was allowed to equilibrate for 10 mins at 30° C. […] Ki values were calculated from initial rate data by non-linear regression using the Prism software package (Prism 4.0a, Graphpad Software, San Diego, Calif.).

The next assay deals with PKC theta kinase (Homo sapiens, UniProt Q04759). Briefly: PKC theta kinase inhibition, coupled-enzyme NADH absorbance assay (Ki). As to conditions: 240 μM ATP, 18 nM PKC theta, 30° C.; read-out: Ki PKC theta. The method, then:
An assay buffer solution was prepared which consisted of 100 mM HEPES (pH 7.5), 10 mM MgCl2, 25 mM NaCl, 0.1 mM EDTA and 0.01% Brij. […] To 60 μL of this enzyme buffer, in a 384 well plate, was added 2 μL of VRT stock solution in DMSO. The mixture was allowed to equilibrate for 10 mins at 30° C. […] Ki values were calculated from initial rate data by non-linear regression using the Prism software package (Prism 4.0a, Graphpad Software, San Diego, Calif.).

The next assay addresses PKC alpha kinase (Homo sapiens, UniProt P17252). Kind of assay: PKC alpha kinase inhibition, coupled-enzyme NADH absorbance assay (Ki). The note with it: 130 μM ATP, 4.5 nM PKC alpha, 30° C.; read-out: Ki PKC alpha. The protocol: as §1, with “EDTA, 100 μM CaCl2” for “EDTA”, “C. The enzyme reaction was initiated by the addition of 16 μL stock ATP solution prepared in assay buffer to a final assay concentration of 130 μM. Initial rate data was determined from the rate of change of absorbance at 340 nm (corresponding to stoichiometric consumption of NADH) using a Molecular Devices Spectramax plate reader (Sunnyvale, Calif.) over 15 mins at 30° C.” for “C.”

Chain of PKC theta kinase (Q04759 whole entry): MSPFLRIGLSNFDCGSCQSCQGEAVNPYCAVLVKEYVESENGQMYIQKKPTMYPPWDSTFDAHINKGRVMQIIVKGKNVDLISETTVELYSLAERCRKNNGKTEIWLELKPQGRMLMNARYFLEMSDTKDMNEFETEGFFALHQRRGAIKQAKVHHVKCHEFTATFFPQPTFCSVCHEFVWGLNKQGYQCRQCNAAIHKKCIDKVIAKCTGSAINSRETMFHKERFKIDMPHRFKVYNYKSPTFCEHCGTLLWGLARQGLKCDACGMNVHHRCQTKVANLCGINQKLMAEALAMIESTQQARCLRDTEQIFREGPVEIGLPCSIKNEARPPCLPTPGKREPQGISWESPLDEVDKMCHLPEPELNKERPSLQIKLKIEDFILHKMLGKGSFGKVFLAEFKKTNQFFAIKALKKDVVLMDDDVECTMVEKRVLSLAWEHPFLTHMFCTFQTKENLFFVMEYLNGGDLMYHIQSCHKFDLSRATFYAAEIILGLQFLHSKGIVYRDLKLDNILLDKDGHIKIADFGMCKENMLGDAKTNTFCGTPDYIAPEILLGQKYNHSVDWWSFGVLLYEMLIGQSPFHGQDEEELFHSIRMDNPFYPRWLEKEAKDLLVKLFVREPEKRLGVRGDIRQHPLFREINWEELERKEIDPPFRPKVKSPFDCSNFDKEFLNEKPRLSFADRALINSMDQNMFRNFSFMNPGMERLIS
Chain of PKC delta kinase (Q05655 whole entry): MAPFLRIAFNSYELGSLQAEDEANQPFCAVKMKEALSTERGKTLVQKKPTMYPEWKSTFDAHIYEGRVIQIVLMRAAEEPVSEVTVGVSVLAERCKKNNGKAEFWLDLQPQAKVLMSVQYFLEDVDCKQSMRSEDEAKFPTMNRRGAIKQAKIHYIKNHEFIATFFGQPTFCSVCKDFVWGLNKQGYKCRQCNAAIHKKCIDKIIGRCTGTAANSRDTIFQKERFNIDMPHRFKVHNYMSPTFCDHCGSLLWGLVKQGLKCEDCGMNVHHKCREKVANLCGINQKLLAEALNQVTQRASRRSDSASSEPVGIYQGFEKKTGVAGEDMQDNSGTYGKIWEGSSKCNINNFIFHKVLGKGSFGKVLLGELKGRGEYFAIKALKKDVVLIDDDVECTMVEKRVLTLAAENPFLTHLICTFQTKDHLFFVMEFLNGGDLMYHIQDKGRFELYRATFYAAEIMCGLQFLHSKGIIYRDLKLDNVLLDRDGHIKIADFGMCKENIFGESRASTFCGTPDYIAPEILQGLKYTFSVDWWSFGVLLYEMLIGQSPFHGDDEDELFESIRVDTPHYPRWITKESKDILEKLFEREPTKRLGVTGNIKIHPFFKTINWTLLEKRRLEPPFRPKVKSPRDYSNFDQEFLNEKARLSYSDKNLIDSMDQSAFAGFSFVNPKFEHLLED

As to `C#Cc1cc(-c2ccnc3[nH]ncc23)cc(C(C)(C)CN)c1` [Compound 40], the values for the Ki on PKC delta kinase, on PKC theta kinase and at PKC alpha kinase were less than 0.5 µM, less than 0.5 µM and less than 2.8 µM, respectively.
As for `CCC(C)(CN)c1cccc(-c2ccnc3[nH]ncc23)c1` (stereo not drawn) [Compound 41], the Ki on PKC delta kinase is less than 0.05 µM; at PKC theta kinase, less than 0.05 µM; at PKC alpha kinase, less than 0.5 µM.
On to `CCCc1cc(-c2ccnc3[nH]ncc23)cc(C(C)(C)CN)c1` [Compound 42], for which the Ki was less than 2.8 µM on PKC delta kinase, less than 0.5 µM on PKC theta kinase and less than 2.8 µM on PKC alpha kinase.
Turning to `CCc1cc(-c2ccnc3[nH]ncc23)cc(C(C)(C)CN)c1` [Compound 44], the Ki at PKC delta kinase is less than 2.8 µM; at PKC theta kinase, less than 0.5 µM; at PKC alpha kinase, less than 2.8 µM.
Regarding `CC(C)CC(C)(CN)c1cccc(-c2ccnc3[nH]ncc23)c1` (stereo not drawn) [Compound 45], the values for the Ki at PKC delta kinase, on PKC theta kinase and on PKC alpha kinase were less than 0.5 µM, less than 0.05 µM and less than 0.5 µM, respectively.
Regarding `CC(CN)(c1cccc(-c2ccnc3[nH]ncc23)c1)C1CCCC1` (stereo not drawn) [Compound 46], the Ki at PKC delta kinase was less than 0.5 µM; on PKC theta kinase, less than 0.05 µM; at PKC alpha kinase it was less than 0.5 µM.
With `CCC(CC)(CN)c1cccc(-c2ccnc3[nH]ncc23)c1` [Compound 47], the values for the Ki at PKC delta kinase, at PKC theta kinase and on PKC alpha kinase were less than 0.5 µM, less than 0.05 µM and less than 0.5 µM, respectively.
Consider `CC(C)C(C)(CN)c1cccc(-c2ccnc3[nH]ncc23)c1` (stereo not drawn) [Compound 48], for which the Ki was less than 0.5 µM on PKC delta kinase, less than 0.05 µM on PKC theta kinase and less than 0.5 µM on PKC alpha kinase.
Take `NCC1(c2cccc(-c3ccnc4[nH]ncc34)c2)CCC1` [Compound 49]: the Ki is less than 0.5 µM at PKC delta kinase, less than 0.05 µM at PKC theta kinase and less than 2.8 µM at PKC alpha kinase.
For `NCC1(c2cccc(-c3ccnc4[nH]ncc34)c2)CCCC1` [Compound 50], in that order: less than 0.5 µM, less than 0.05 µM and less than 2.8 µM.
For `CCCC(C)(CN)c1cccc(-c2ccnc3[nH]ncc23)c1` (stereo not drawn) [Compound 51], in that order: less than 0.05 µM, less than 0.05 µM and less than 0.5 µM.
On to `C=CCc1cc(-c2ccnc3[nH]ncc23)cc(C(C)(C)CN)c1` [Compound 52], for which the Ki was less than 2.8 µM at PKC delta kinase, less than 0.5 µM on PKC theta kinase and less than 2.8 µM on PKC alpha kinase.
With `C/C=C/c1cc(-c2ccnc3[nH]ncc23)cc(C(C)(C)C#N)c1` [Compound 54], the Ki is greater than 2.8 µM at PKC delta kinase, less than 0.5 µM at PKC theta kinase and greater than 2.8 µM on PKC alpha kinase.
Regarding `C=Cc1cc(-c2ccnc3[nH]ncc23)cc(C(C)(C)C#N)c1` [Compound 55], the values for the Ki at PKC delta kinase, at PKC theta kinase and on PKC alpha kinase were less than 2.8 µM, less than 0.5 µM and less than 2.8 µM, respectively.
As for `CCCc1cc(-c2ccnc3[nH]ncc23)cc(C(C)(C)C#N)c1` [Compound 57], the Ki at PKC delta kinase is greater than 2.8 µM; on PKC theta kinase, less than 0.05 µM; at PKC alpha kinase, less than 2.8 µM.
On to `CC(C)(C#N)c1cc(-c2ccc[nH]2)cc(-c2ccnc3[nH]ncc23)c1` [Compound 59], for which the Ki is greater than 2.8 µM on PKC delta kinase, less than 0.5 µM on PKC theta kinase and greater than 2.8 µM on PKC alpha kinase.
For `CCc1cc(-c2ccnc3[nH]ncc23)cc(C(C)(C)C#N)c1` [Compound 62], the Ki on PKC delta kinase is greater than 2.8 µM; on PKC theta kinase, less than 0.05 µM; at PKC alpha kinase, less than 2.8 µM.
On to `CCC(C)(C#N)c1cccc(-c2ccnc3[nH]ncc23)c1` (stereo not drawn) [Compound 64, 2-(3-(1H-pyrazolo[3,4-b]pyridin-4-yl)phenyl)-2-methylbutanenitrile], for which the Ki on PKC delta kinase is less than 2.8 µM; at PKC theta kinase it was less than 0.5 µM; at PKC alpha kinase it was less than 2.8 µM.
Turning to `CCC(C#N)c1cccc(-c2ccnc3[nH]ncc23)c1` (stereo not drawn) [Compound 66], the figures for the Ki on PKC delta kinase, on PKC theta kinase and at PKC alpha kinase were less than 2.8 µM, less than 0.5 µM and less than 2.8 µM, respectively.
`C=CCc1cc(-c2ccnc3[nH]ncc23)cc(C(C)(C)C#N)c1` [Compound 67]: the values for the Ki on PKC delta kinase, at PKC theta kinase and at PKC alpha kinase were greater than 2.8 µM, less than 0.5 µM and less than 2.8 µM, respectively.
For the compound `CCCC(C)(C#N)c1cccc(-c2ccnc3[nH]ncc23)c1` (stereo not drawn) [Compound 69], the values for the Ki on PKC delta kinase, at PKC theta kinase and on PKC alpha kinase were greater than 2.8 µM, less than 2.8 µM and less than 2.8 µM, respectively.
As to `CC(C)C(C)(C#N)c1cccc(-c2ccnc3[nH]ncc23)c1` (stereo not drawn) [Compound 70], the Ki on PKC delta kinase was less than 2.8 µM; on PKC theta kinase, less than 0.5 µM; on PKC alpha kinase, less than 2.8 µM.
Regarding `CC(C)CC(C)(C#N)c1cccc(-c2ccnc3[nH]ncc23)c1` (stereo not drawn) [Compound 71], the Ki at PKC delta kinase, on PKC theta kinase and at PKC alpha kinase was less than 2.8 µM each time.
For the compound `CC(C#N)(c1cccc(-c2ccnc3[nH]ncc23)c1)C1CCCC1` (stereo not drawn) [Compound 72], the Ki at PKC delta kinase is greater than 2.8 µM; on PKC theta kinase, less than 2.8 µM; at PKC alpha kinase, greater than 2.8 µM.
Consider `N#CC1(c2cccc(-c3ccnc4[nH]ncc34)c2)CCC1` [Compound 73], for which the Ki is less than 2.8 µM on PKC delta kinase, less than 0.5 µM on PKC theta kinase and less than 2.8 µM on PKC alpha kinase.
Take `N#CC1(c2cccc(-c3ccnc4[nH]ncc34)c2)CCCC1` [Compound 74]: the Ki is less than 2.8 µM on PKC delta kinase, less than 0.5 µM at PKC theta kinase and less than 2.8 µM on PKC alpha kinase.
On to `CNCc1cc(-c2ccnc3[nH]ncc23)cc(C(C)(C)C#N)c1` [Compound 75], for which the Ki on PKC delta kinase was greater than 2.8 µM; at PKC theta kinase, less than 2.8 µM; on PKC alpha kinase, greater than 2.8 µM.
For the compound `CC(C)(C#N)c1cc(CN)cc(-c2ccnc3[nH]ncc23)c1` [Compound 76], the figures for the Ki on PKC delta kinase, at PKC theta kinase and on PKC alpha kinase were greater than 2.8 µM, less than 2.8 µM and greater than 2.8 µM, respectively.
Take `CCC(O)c1cccc(-c2ccnc3[nH]ncc23)c1` (stereo not drawn) [Compound 77]: the Ki at PKC delta kinase is greater than 2.8 µM; on PKC theta kinase it was less than 2.8 µM; at PKC alpha kinase it was greater than 2.8 µM.
Consider `CC(C)(C#N)c1cc(CCCO)cc(-c2ccnc3[nH]ncc23)c1` [Compound 78], for which the Ki on PKC delta kinase was less than 2.8 µM; on PKC theta kinase it was less than 0.05 µM; on PKC alpha kinase it was less than 2.8 µM.
As to `CC(O)Cc1cc(-c2ccnc3[nH]ncc23)cc(C(C)(C)C#N)c1` (stereo not drawn) [Compound 79], the Ki at PKC delta kinase is greater than 2.8 µM; on PKC theta kinase it was less than 0.5 µM; on PKC alpha kinase it was greater than 2.8 µM.
Consider `CC(C#N)(CC1CC1)c1cccc(-c2ccnc3[nH]ncc23)c1` (stereo not drawn) [Compound 80], for which the Ki is greater than 2.8 µM on PKC delta kinase, less than 0.5 µM at PKC theta kinase and less than 2.8 µM at PKC alpha kinase.
For `C=Cc1ccc(-c2ccnc3n[nH]cc23)cc1C(C)(C)C#N` [Compound 84], in that order: greater than 2.8 µM, less than 2.8 µM and greater than 2.8 µM.
Regarding `Cc1cc(-c2ccnc3[nH]ncc23)cc(C2(C#N)CCC2)c1` [Compound 85], the Ki on PKC delta kinase was greater than 2.8 µM; on PKC theta kinase, less than 0.05 µM; on PKC alpha kinase, less than 2.8 µM.
For the compound `CCC(C#N)c1cc(C)cc(-c2ccnc3[nH]ncc23)c1` (stereo not drawn) [Compound 86], the results for the Ki on PKC delta kinase, on PKC theta kinase and on PKC alpha kinase were greater than 2.8 µM, less than 0.5 µM and less than 2.8 µM, respectively.
Regarding `CCC(C)(C#N)c1cc(Cl)cc(-c2ccnc3[nH]ncc23)c1` (stereo not drawn) [Compound 87], the figures for the Ki on PKC delta kinase, on PKC theta kinase and at PKC alpha kinase were less than 2.8 µM, less than 0.5 µM and less than 2.8 µM, respectively.
In the case of `CC(F)c1cc(-c2ccnc3[nH]ncc23)cc(C(C)(C)C#N)c1` (stereo not drawn) [Compound 88], the figures for the Ki on PKC delta kinase, at PKC theta kinase and on PKC alpha kinase were less than 2.8 µM, less than 0.05 µM and less than 2.8 µM, respectively.
For the compound `CCC(C)(C#N)c1cc(C)cc(-c2ccnc3[nH]ncc23)c1` (stereo not drawn) [Compound 89], the Ki at PKC delta kinase was less than 2.8 µM; on PKC theta kinase it was less than 0.5 µM; on PKC alpha kinase, less than 2.8 µM.
Turning to `C=CCC(C)(C#N)c1cccc(-c2ccnc3[nH]ncc23)c1` (stereo not drawn) [Compound 90], the Ki on PKC delta kinase is less than 2.8 µM; at PKC theta kinase, less than 0.5 µM; on PKC alpha kinase it was less than 2.8 µM.
Turning to `C#CCC(C)(C#N)c1cccc(-c2ccnc3[nH]ncc23)c1` (stereo not drawn) [Compound 91], the figures for the Ki at PKC delta kinase, at PKC theta kinase and on PKC alpha kinase were less than 2.8 µM, less than 0.5 µM and less than 0.5 µM, respectively.
With `N#CC1(c2cc(-c3ccnc4[nH]ncc34)cc(C(F)(F)F)c2)CCC1` [Compound 92], the Ki at PKC delta kinase is greater than 2.8 µM; on PKC theta kinase, less than 0.5 µM; at PKC alpha kinase, less than 2.8 µM.
Regarding `CCC(C)(C#N)c1cc(-c2ccnc3[nH]ncc23)cc(C(F)(F)F)c1` (stereo not drawn) [Compound 93], the Ki at PKC delta kinase is less than 2.8 µM; at PKC theta kinase, less than 0.5 µM; on PKC alpha kinase, less than 2.8 µM.
`C/C=C\c1cc(-c2ccnc3[nH]ncc23)cc(C(C)(C#N)CC)c1` (stereo not drawn) [Compound 94]: the results for the Ki on PKC delta kinase, on PKC theta kinase and on PKC alpha kinase were greater than 2.8 µM, less than 0.5 µM and greater than 2.8 µM, respectively.
